Experimental data as given in ChEMBL document CHEMBL1201862, “PubChem BioAssay data set” (2004).
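48-hour exposure; five concentrations; linearly interpolated endpoints. Here, GI50 denotes the concentration required for 50% inhibition of growth.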 The source made the active and inactive calls. Rule as the data show it: active = GI50 up to about 1.1 µM and inactive = higher.

How the values were obtained:
Experiment in all cases: growth of human tumour cells (NCI), 48 h
NCI-H23 = test system: NCI-H23
SNB-19 = test system: SNB-19
MOLT-4 = test system: MOLT-4
ACHN = test system: ACHN
HCT-15 = test system: HCT-15
RPMI-8226 = test system: RPMI-8226
SNB-75 = test system: SNB-75
SK-MEL-5 = test system: SK-MEL-5
SF-268 = test system: SF-268
SF-539 = test system: SF-539
SF-295 = test system: SF-295
SK-OV-3 = test system: SK-OV-3
EKVX = test system: EKVX
CAKI-1 = test system: CAKI-1
SN12C = test system: SN12C
HT-29 = test system: HT-29
SK-MEL-28 = test system: SK-MEL-28
RXF 393 = test system: RXF 393
TK-10 = test system: TK-10
HCC 2998 = test system: HCC 2998

SMILES | GI50 (NCI-H23) | GI50 (SNB-19) | GI50 (MOLT-4) | GI50 (ACHN) | GI50 (HCT-15) [µM] | GI50 (RPMI-8226) | GI50 (SNB-75) | GI50 (SK-MEL-5) | GI50 (SF-268) | GI50 (SF-539) | GI50 (SF-295) | GI50 (SK-OV-3) | GI50 (EKVX) | GI50 (CAKI-1) | GI50 (SN12C) | GI50 (HT-29) | GI50 (SK-MEL-28) | GI50 (RXF 393) | GI50 (TK-10) | GI50 (HCC 2998)
CCOC(=O)NC(=O)c1cn(CCNCCO)c(=O)[nH]c1=O | > 100 µM (inactive) | 9.23 µM (inactive) | > 100 µM (inactive) | > 100 µM (inactive) | > 100 | > 100 µM (inactive) | 3.36 µM (inactive) | > 100 µM (inactive) | > 100 µM (inactive) | > 100 µM (inactive) | > 100 µM (inactive) | > 100 µM (inactive) | > 100 µM (inactive) | > 100 µM (inactive) | > 100 µM (inactive) | > 100 µM (inactive) |  |  |  | 
c1nc2nc[nH]c(SSc3[nH]cnc4ncnc3-4)c-2n1 | 0.292 µM (active) | 47.4 µM (inactive) |  | 3.21 µM (inactive) | 0.925 |  | 0.463 µM (active) | 4.83 µM (inactive) | 0.897 µM (active) |  | 0.127 µM (active) |  | 88.3 µM (inactive) |  | 12.8 µM (inactive) | 1.19 µM (inactive) | 61.8 µM (inactive) | > 100 µM (inactive) | < 0.0343 µM (active) | 
CC(=O)Nc1ccc(C(=O)NN2C(=O)C(Cl)C2/C=C/c2ccccc2)cc1 (configuration not stated) | > 100 µM (inactive) | > 100 µM (inactive) | > 100 µM (inactive) | > 100 µM (inactive) |  | > 100 µM (inactive) | > 100 µM (inactive) | > 100 µM (inactive) | > 100 µM (inactive) | > 100 µM (inactive) | > 100 µM (inactive) | > 100 µM (inactive) |  |  |  | > 100 µM (inactive) | > 100 µM (inactive) |  | > 100 µM (inactive) | > 100 µM (inactive)
CC1(C)OC2COC3(CNO)OC(C)(C)OC3C2O1 (configuration not stated) | > 100 µM (inactive) | > 100 µM (inactive) | > 100 µM (inactive) | > 100 µM (inactive) | > 100 |  | > 100 µM (inactive) | > 100 µM (inactive) | > 100 µM (inactive) | > 100 µM (inactive) | > 100 µM (inactive) | > 100 µM (inactive) | > 100 µM (inactive) | > 100 µM (inactive) | > 100 µM (inactive) | > 100 µM (inactive) | > 100 µM (inactive) | > 100 µM (inactive) | > 100 µM (inactive) | > 100 µM (inactive)
CC(C)(C)[Si](C)(C)OCCOCn1cc(F)c(=O)[nH]c1=O | > 100 µM (inactive) | > 100 µM (inactive) | > 100 µM (inactive) | > 100 µM (inactive) | > 100 | > 100 µM (inactive) | > 100 µM (inactive) | > 100 µM (inactive) | > 100 µM (inactive) | > 100 µM (inactive) | > 100 µM (inactive) | > 100 µM (inactive) | > 100 µM (inactive) | > 100 µM (inactive) | > 100 µM (inactive) | > 100 µM (inactive) |  | > 100 µM (inactive) | > 100 µM (inactive) | 
COc1ccc(N2C(=O)CSC2c2c[nH]c3ccccc23)cc1 (configuration not stated) | 69.7 µM (inactive) | > 100 µM (inactive) | 33 µM (inactive) |  | 70.3 |  | > 100 µM (inactive) | 88.5 µM (inactive) | > 100 µM (inactive) |  | 44.9 µM (inactive) | > 100 µM (inactive) | > 100 µM (inactive) |  | > 100 µM (inactive) | 51.1 µM (inactive) | > 100 µM (inactive) | > 100 µM (inactive) | 59.8 µM (inactive) | > 100 µM (inactive)
Nc1c(Br)cc2c(c1Br)Cc1cc(Br)ccc1-2 | > 100 µM (inactive) | > 100 µM (inactive) | > 100 µM (inactive) | > 100 µM (inactive) | > 100 |  | > 100 µM (inactive) | > 100 µM (inactive) | > 100 µM (inactive) |  | > 100 µM (inactive) | > 100 µM (inactive) |  |  | > 100 µM (inactive) | > 100 µM (inactive) | > 100 µM (inactive) | > 100 µM (inactive) | > 100 µM (inactive) | > 100 µM (inactive)
CCSc1nc(N)c2c(-c3ccccc3)c3c(nc2n1)CCC3 | > 100 µM (inactive) | > 100 µM (inactive) | > 100 µM (inactive) | > 100 µM (inactive) | > 100 | > 100 µM (inactive) | > 100 µM (inactive) | > 100 µM (inactive) | > 100 µM (inactive) | 6.53 µM (inactive) | > 100 µM (inactive) | > 100 µM (inactive) | > 100 µM (inactive) | > 100 µM (inactive) | > 100 µM (inactive) |  | > 100 µM (inactive) | > 100 µM (inactive) | > 100 µM (inactive) | 
